Values joined by “and” are separate entries in the source; they are usually repeats but may differ in a detail not shown here. Identical values can stand only once.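 Dose response: 5 concentrations. Exposure: 48 h. Format: 96-well plates. Endpoint: linear interpolation; highest concentration if not reached. GI50 is the concentration that inhibits growth by half. TGI marks complete inhibition of growth.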

Among the test systems are IGROV1 ovarian; M14 melanoma; RXF 393 renal; SF-539 CNS; 786-0 renal; HCT-116 colon; HT29 colon; HOP-62 NSCLC; ACHN renal; SW-620 colon.
Holding throughout (assay): inhibition of tumour cell growth, NCI panel, 48 h

On to `COc1ccccc1-c1c(C)nn2c(NCc3ccccn3)cc(C)nc12`, for which the GI50 with IGROV1 ovarian is greater than 37500 nM; in the assay on M14 melanoma it was 24700 nM; with RXF 393 renal, 33500 nM; in the assay with SF-539 CNS it was 44300 nM; in the assay on 786-0 renal, 36400 nM; in the assay with HCT-116 colon, 3750 nM. In addition, the GI50 in the assay with HT29 colon was 7310 nM; with HOP-62 NSCLC, 34700 nM; in the assay with ACHN renal, 3510 nM; in the assay on SW-620 colon, 14900 nM. Further, the TGI with IGROV1 ovarian, with M14 melanoma, with RXF 393 renal, in the assay with SF-539 CNS, in the assay with 786-0 renal and with HCT-116 colon was greater than 50 µM throughout. Besides, the TGI in the assay with HT29 colon, in the assay on HOP-62 NSCLC, in the assay with ACHN renal and with SW-620 colon was greater than 50 µM throughout.

Regarding `O=C1C(=O)N(C2C3CC4CC(C3)CC2C4)C(=O)C(=O)C1c1nc2ccccc2o1` (centres undefined), the TGI in the assay on IGROV1 ovarian, in the assay with M14 melanoma, in the assay on RXF 393 renal, in the assay with SF-539 CNS, in the assay with 786-0 renal and with HCT-116 colon was greater than 100 µM in each case. Further, the TGI in the assay with HT29 colon is 49.9 µM; in the assay with HOP-62 NSCLC it was greater than 100 µM; in the assay with ACHN renal, greater than 100 µM; in the assay with SW-620 colon it was greater than 100 µM.

As to `CCN1C(=O)N(CC)C2C1NN=c1s/c(=C3\C(=O)N(C)c4ccccc43)c(=O)n12` (centres undefined), the GI50 with IGROV1 ovarian was 891 nM; with M14 melanoma, 803 nM; in the assay with RXF 393 renal, 587 nM; in the assay with SF-539 CNS, 545 nM; with 786-0 renal, 1940 nM; in the assay with HCT-116 colon, 1100 nM. Also, the GI50 is 562 nM in the assay on HT29 colon, 2250 nM in the assay on HOP-62 NSCLC, 752 nM in the assay with ACHN renal and 580 nM in the assay with SW-620 colon. Moreover, the TGI in the assay on IGROV1 ovarian was 43.7 µM; in the assay with M14 melanoma, greater than 58.3 µM; in the assay on RXF 393 renal, 4.81 µM; in the assay on SF-539 CNS, 3.77 µM; in the assay on 786-0 renal, greater than 100 µM; with HCT-116 colon, greater than 43.6 µM. The TGI in the assay on HT29 colon, in the assay with HOP-62 NSCLC, in the assay with ACHN renal and in the assay on SW-620 colon was greater than 100 µM each time.

On to `CCCCCc1c(C)[nH]c(/C=C2\N=C(c3ccc[nH]3)C=C2Oc2ccc(Cl)cc2)c1C`, for which the GI50 in the assay on IGROV1 ovarian was 204 nM and 129 nM; in the assay with M14 melanoma, 78.9 nM and 20.3 nM; in the assay on RXF 393 renal, 67.8 nM and 123 nM; with SF-539 CNS it was 125 nM and 40.6 nM; with 786-0 renal, 76.3 nM and 46.1 nM; with HCT-116 colon it was 39.2 nM and 14.7 nM. The GI50 is 40.2 nM and 28 nM with HT29 colon; 148 nM and 187 nM in the assay on HOP-62 NSCLC; 196 nM and 39.7 nM with ACHN renal; 38.7 nM and 22.8 nM in the assay with SW-620 colon. Moreover, the TGI with IGROV1 ovarian was 50.9 µM; with RXF 393 renal, 0.672 µM and 0.722 µM; in the assay on SF-539 CNS, 0.992 µM and 0.474 µM; with 786-0 renal it was 0.326 µM and 0.512 µM; in the assay with HCT-116 colon it was 1.22 µM and 1.18 µM; with HT29 colon, 18.3 µM. Also, the TGI is 14.6 µM in the assay with HOP-62 NSCLC; 1.22 µM and 2.11 µM in the assay with ACHN renal; 2.58 µM and 1.29 µM in the assay with SW-620 colon.

Regarding `CC(C)[C@@H](COC(C)(C)C)N=CN1CCc2c([nH]c3ccccc23)C1`, the TGI in the assay on IGROV1 ovarian, in the assay on M14 melanoma, with RXF 393 renal, in the assay on SF-539 CNS, in the assay with 786-0 renal and in the assay with HCT-116 colon was greater than 100 µM in each case. Besides, the TGI with HT29 colon, with HOP-62 NSCLC, in the assay with ACHN renal and with SW-620 colon was greater than 100 µM in each case.

For the compound `CCSc1nc(COC(=O)NC)c(COC(=O)NC)n1C`, the TGI with IGROV1 ovarian is greater than 93.1 µM; in the assay with M14 melanoma, greater than 83 µM; in the assay with RXF 393 renal it was 78.5 µM; in the assay with SF-539 CNS, greater than 100 µM; in the assay with 786-0 renal, greater than 100 µM; in the assay with HCT-116 colon it was greater than 100 µM. Besides, the TGI in the assay on HT29 colon was greater than 100 µM; in the assay on HOP-62 NSCLC, greater than 100 µM; in the assay with ACHN renal it was 35.5 µM; in the assay with SW-620 colon, greater than 100 µM.

Take `O=C(O)CCC1CCc2cccc3occ1c23` (centres undefined): the TGI in the assay on IGROV1 ovarian, in the assay on M14 melanoma, in the assay on RXF 393 renal, in the assay on SF-539 CNS, in the assay with 786-0 renal and with HCT-116 colon was greater than 100 µM throughout. The TGI in the assay with HT29 colon, with HOP-62 NSCLC, in the assay on ACHN renal and with SW-620 colon was greater than 100 µM in each case.

In the case of `CS(=O)(=O)Nc1cc(-c2ccc3ncnc(Nc4ccc5c(cnn5Cc5ccc(F)cc5)c4)c3c2)cnc1Cl`, the GI50 is 314 nM in the assay with IGROV1 ovarian; 2330 nM with M14 melanoma; 380 nM with RXF 393 renal; 1500 nM in the assay on SF-539 CNS; 2220 nM in the assay on 786-0 renal; 2920 nM in the assay with HCT-116 colon. For the same compound, the GI50 in the assay with HT29 colon was 1920 nM; in the assay with HOP-62 NSCLC it was 1530 nM; in the assay with ACHN renal, 2990 nM; with SW-620 colon, 2500 nM. Besides, the TGI was 1.71 µM in the assay on IGROV1 ovarian; 17 µM in the assay with M14 melanoma; 2.26 µM in the assay on RXF 393 renal; 5.29 µM in the assay on SF-539 CNS; 19.9 µM with 786-0 renal; 21.7 µM in the assay on HCT-116 colon. Further, the TGI is 12.9 µM with HT29 colon, 41.4 µM in the assay with HOP-62 NSCLC, greater than 100 µM with ACHN renal and 12.8 µM in the assay with SW-620 colon.

Turning to `Cn1cc(-c2ccc(CNc3cc(-c4cnc5cc(OCCCN6CCCC6)ccn45)ncn3)cc2)cn1`, the GI50 was 2050 nM with IGROV1 ovarian; 1740 nM in the assay with M14 melanoma; 1610 nM in the assay on RXF 393 renal; 1170 nM in the assay on SF-539 CNS; 1490 nM with 786-0 renal; 1570 nM in the assay with HCT-116 colon. Further, the GI50 with HT29 colon was 1330 nM; in the assay on HOP-62 NSCLC it was 14400 nM; in the assay on ACHN renal, 1780 nM; in the assay on SW-620 colon it was 1610 nM. Besides, the TGI with IGROV1 ovarian was found to be 4.27 µM; in the assay with M14 melanoma, 3.2 µM; in the assay with RXF 393 renal, 3.33 µM; in the assay with SF-539 CNS, 2.46 µM; in the assay on 786-0 renal it was 2.91 µM; with HCT-116 colon, 2.98 µM. In addition, the TGI with HT29 colon was 2.72 µM; with HOP-62 NSCLC it was 31.9 µM; with ACHN renal it was 3.22 µM; in the assay on SW-620 colon it was 3.17 µM.

Regarding `O=C(Cc1ccccc1)N/N=C(\C1=Nc2ccc([N+](=O)[O-])cc2NC1O)C(O)c1ccc([N+](=O)[O-])cc1` (centres undefined), the TGI with IGROV1 ovarian, in the assay on M14 melanoma, with RXF 393 renal, with SF-539 CNS, in the assay on 786-0 renal and with HCT-116 colon was greater than 100 µM each time. Also, the TGI in the assay with HT29 colon, with HOP-62 NSCLC, in the assay on ACHN renal and in the assay on SW-620 colon was greater than 100 µM each time.

With `NCc1ccc(-n2c(-c3nonc3N)nc3cnccc32)cc1`, the GI50 with IGROV1 ovarian was greater than 25000 nM; in the assay on M14 melanoma it was greater than 25000 nM; in the assay on RXF 393 renal, 1760 nM; with SF-539 CNS, 2570 nM; in the assay on 786-0 renal, 7510 nM; in the assay with HCT-116 colon it was 2690 nM. The GI50 was 7580 nM in the assay on HT29 colon, greater than 14400 nM with HOP-62 NSCLC, 5680 nM with ACHN renal and 7100 nM in the assay with SW-620 colon. Also, the TGI is greater than 25 µM with IGROV1 ovarian; greater than 25 µM in the assay with M14 melanoma; 11.3 µM in the assay on RXF 393 renal; greater than 23.6 µM in the assay with SF-539 CNS; greater than 25 µM with 786-0 renal; greater than 25 µM in the assay with HCT-116 colon. For the same compound, the TGI in the assay on HT29 colon, in the assay on HOP-62 NSCLC, in the assay with ACHN renal and with SW-620 colon was greater than 25 µM throughout.

With `CC1=CC(=O)C(C(C)=Nc2ccccc2Cl)C(=O)O1` (centres undefined), the GI50 in the assay with IGROV1 ovarian is 76200 nM; with M14 melanoma it was greater than 100000 nM; in the assay with RXF 393 renal, greater than 100000 nM; in the assay on SF-539 CNS, greater than 100000 nM; in the assay with 786-0 renal, greater than 100000 nM; in the assay with HCT-116 colon it was greater than 100000 nM. Moreover, the GI50 in the assay on HT29 colon, in the assay on HOP-62 NSCLC, in the assay on ACHN renal and in the assay with SW-620 colon was greater than 100000 nM throughout. The TGI in the assay with IGROV1 ovarian, in the assay on M14 melanoma, in the assay on RXF 393 renal, in the assay on SF-539 CNS, with 786-0 renal and in the assay with HCT-116 colon was greater than 100 µM each time. Further, the TGI in the assay on HT29 colon, with HOP-62 NSCLC, with ACHN renal and in the assay on SW-620 colon was greater than 100 µM in each case.

As to `Cc1cccc(C(C)(C)C)c1NC(=O)C(=O)C(c1cnc2ccccc2n1)[N+](=O)[O-]` (centres undefined), the TGI with IGROV1 ovarian, with M14 melanoma, in the assay on RXF 393 renal, in the assay on SF-539 CNS, with 786-0 renal and in the assay with HCT-116 colon was greater than 100 µM in each case. The TGI in the assay with HT29 colon, with HOP-62 NSCLC, in the assay with ACHN renal and in the assay with SW-620 colon was greater than 100 µM throughout.

As to `CCO[C@@H]1C2C=CC(C2)[C@H]1[N+](=O)[O-]` (some centres undefined), the TGI in the assay with IGROV1 ovarian, in the assay on M14 melanoma, in the assay with RXF 393 renal, with SF-539 CNS, with 786-0 renal and in the assay on HCT-116 colon was greater than 100 µM each time. In addition, the TGI with HT29 colon, with HOP-62 NSCLC, in the assay on ACHN renal and with SW-620 colon was greater than 100 µM each time.

Source of the values: PubChem BioAssay (NCI).
